According to paper PMC5125695, “Antiviral Efficacy of Verdinexor In Vivo in Two Animal Models of Influenza A Virus Infection” (PLoS ONE, 2016):
Like-named read-outs stand apart in the source and are kept apart here.

How the values were obtained:
A/California/04/09-MA = details: cited from earlier work
[1] = human, in vivo; cited from earlier work
A/California/04/09 [2] = test system: A/California/04/09; design: species or system ferrets; details: in vivo
[3] = test system: various influenza A and B virus strains; details: cited from earlier work
A/California/04/09 [4] = test system: A/California/04/09; design: species or system ferrets; details: in vivo; remark: listed apart in the source
A/California/04/09 [5] = type: in vivo, ferrets
[6] = in vivo
[7] = mice, 20 mg/kg at day 1 and 3; data not shown
in vivo = details: male, po, 5 mg/kg
A/California/04/09 [8] = test system: A/California/04/09; design: species or system ferrets; details: in vivo; remark: listed apart in the source
[9] = preliminary results, phase I and II studies; cited from earlier work

O=C(/C=C\n1cnc(-c2cc(C(F)(F)F)cc(C(F)(F)F)c2)n1)NNc1ccccn1 [verdinexor]
Virus burden and inflammatory cytokines expression in lungs (A/California/04/09-MA; mice infected with A/California/04/09-MA): efficacious in limiting virus burden and inflammatory cytokines expression
Lung pathology and mortality upon lethal virus infection (A/California/04/09-MA; mice, oral verdinexor): reduced lung pathology and mortality
Safety and tolerability in a phase I clinical trial [1]: safe and well-tolerated
Infiltrating leukocytes in nasal washes at day 2 pi (A/California/04/09 [2]): Lower numbers of infiltrating leukocytes
Infiltrating leukocytes in nasal washes at day 4 pi (A/California/04/09 [2]; 10 mg/kg): significant (p≤0.05) reduction
Infiltrating leukocytes in nasal washes at day 4 pi (A/California/04/09 [2]; 25 mg/kg): significant (p≤0.05) reduction
Replication of various influenza A and B virus strains [3]: effective to inhibit the replication
Influenza-associated lung pathology and inflammation (A/California/04/09 [4]; 10 mg/kg): significant amelioration
Lung score of the representative animal (range 0–4) (A/California/04/09 [4]; 10 mg/kg): 2
Influenza-associated lung pathology and inflammation (A/California/04/09 [4]; 15 mg/kg): limited reduction in pathology
Lung score of the representative animal (range 0–4) (A/California/04/09 [4]; 15 mg/kg): 2
Influenza-associated lung pathology and inflammation (A/California/04/09 [4]; 25 mg/kg): significant amelioration
Lung score of the representative animal (range 0–4) (A/California/04/09 [4]; 25 mg/kg): 2
IFN-γ expression in nasal exudates at day 2 and 4 pi (A/California/04/09 [5]; […], not statistically significant): trend toward reduced IFN-γ expression
IL-12p40 expression in nasal exudates at day 2 pi (A/California/04/09 [5]; in vivo, 10 mg/kg): reduced IL-12p40 expression
IL-12p40 expression in nasal exudates at day 2 pi (A/California/04/09 [5]; in vivo, 25 mg/kg): reduced IL-12p40 expression
TNF-α expression in nasal exudates at day 2 pi (A/California/04/09 [5]; in vivo, 25 mg/kg): reduced TNF-α expression
Clearance from the plasma [6]: more rapidly cleared from the plasma compared to mice
Oral bioavailability ([6]; po): orally bioavailable
Efficacy and tolerability of the treatment regimen [7]: most efficacious yet well tolerated
AUC(0-inf) (in vivo): 3510 ng·h/mL
AUC(0-t) (in vivo): 3510 ng·h/mL
Cmax (in vivo): 1490 ng/mL
Tmax (in vivo): 0.361 h
half-life (in vivo): 1.84 h
Lung virus titers at day 4 pi (A/California/04/09 [8]; 10 mg/kg): considerably (p≤0.001) reduced lung virus titers
Lung virus titers at day 4 pi (A/California/04/09 [8]; 15 mg/kg): considerably (p≤0.001) reduced lung virus titers
Lung virus titers at day 4 pi (A/California/04/09 [8]; 25 mg/kg): considerably (p≤0.001) reduced lung virus titers

O=C(/C=C\n1cnc(-c2cc(C(F)(F)F)cc(C(F)(F)F)c2)n1)NNc1cnccn1 [selinexor]
Anti-cancer activity in human patients [9]: evidence of anti-cancer activity
Oral exposure in human patients [9]: good oral exposure

CCOC(=O)C1=C[C@@H](OC(CC)CC)[C@H](NC(C)=O)[C@@H](N)C1 [oseltamivir, reference compound]
Infiltrating leukocytes in nasal washes at day 2 pi (A/California/04/09 [2]): Lower numbers of infiltrating leukocytes
Influenza-associated lung pathology and inflammation (A/California/04/09 [4]): limited reduction in pathology
Lung score of the representative animal (range 0–4) (A/California/04/09 [4]): 3
IFN-γ expression in nasal exudates at day 2 and 4 pi (A/California/04/09 [5]; in vivo): trend toward reduced IFN-γ expression
IL-12p40 expression in nasal exudates at day 2 pi (A/California/04/09 [5]; in vivo): reduced IL-12p40 expression
TNF-α expression in nasal exudates at day 2 pi (A/California/04/09 [5]; in vivo): reduced TNF-α expression
Lung virus titers at day 4 pi (A/California/04/09 [8]): considerably (p≤0.001) reduced lung virus titers
